In this assay the target is Prothrombin (Bos taurus) (UniProt P00735). Nature of the assay: thrombin inhibitor potency on Ub4 substrate – biochemical, fluorescence polarization, SAR validation, counter-screen for Rpn11 inhibitor project, dose response (AID 686918). The note with it: bovine thrombin cleavage of Ub4-pepOG. On the technique in general: In fluorescence polarisation assays a small probe gives low polarisation when free and higher when bound to something large.

The source made the active and inactive calls.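 The calls were made as follows: active = thrombin counterscreen IC50 at or below 100 µM; inactive = the rest.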

Chain of Prothrombin (Bos taurus) (P00735 whole entry, looked up): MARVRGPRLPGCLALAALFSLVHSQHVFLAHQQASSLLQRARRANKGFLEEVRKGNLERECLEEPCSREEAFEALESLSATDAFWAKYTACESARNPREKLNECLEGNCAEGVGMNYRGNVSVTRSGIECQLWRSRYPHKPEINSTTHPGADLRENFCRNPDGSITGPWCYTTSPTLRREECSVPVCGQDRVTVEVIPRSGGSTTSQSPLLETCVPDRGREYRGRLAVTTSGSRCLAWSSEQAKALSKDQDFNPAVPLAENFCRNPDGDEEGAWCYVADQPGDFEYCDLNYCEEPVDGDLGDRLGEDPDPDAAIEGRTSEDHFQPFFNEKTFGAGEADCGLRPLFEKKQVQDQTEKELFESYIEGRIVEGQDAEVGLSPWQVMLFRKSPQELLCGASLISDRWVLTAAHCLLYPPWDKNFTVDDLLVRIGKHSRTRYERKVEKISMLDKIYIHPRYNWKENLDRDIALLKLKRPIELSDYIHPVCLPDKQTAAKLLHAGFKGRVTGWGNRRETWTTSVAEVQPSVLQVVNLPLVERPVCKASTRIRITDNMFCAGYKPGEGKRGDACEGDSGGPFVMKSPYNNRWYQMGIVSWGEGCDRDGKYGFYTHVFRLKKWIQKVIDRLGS

By IC50 is commonly meant the concentration needed to halve the response being measured. Turning to `O=C(Sc1cccc2cccnc12)c1ccccc1[N+](=O)[O-]`, the IC50 is > 99 µM (inactive).

For `O=C(Sc1cccc2cccnc12)c1ccccc1F`, the IC50 is > 99 µM (inactive).

In the case of `C[C@@H](C(=O)O)N(C)C(=O)c1cnc2c(SSc3cccc4cc(C(=O)N(C)[C@@H](C)C(=O)O)cnc34)cccc2c1`, the IC50 is > 99 µM (inactive).

Regarding `COC(=O)[C@H](CO)NC(=O)c1cnc2c(SSc3cccc4cc(C(=O)N[C@@H](CO)C(=O)OC)cnc34)cccc2c1`, the IC50 is > 99 µM (inactive).

Turning to `CC(C)Cc1ccc(C(=O)Sc2cccc3cccnc23)cc1`, the IC50 was > 99 µM (inactive).

As for `COc1ccc(C(=O)Sc2cccc3cccnc23)cc1F`, the IC50 was > 99 µM (inactive).

As for `CC(C)[C@H](NC(=O)c1cnc2c(SSc3cccc4cc(C(=O)N[C@H](C(=O)O)C(C)C)cnc34)cccc2c1)C(=O)O`, the IC50 was > 99 µM (inactive).

With `O=C(Sc1cccc2cccnc12)c1ccc([N+](=O)[O-])cc1`, the IC50 is > 99 µM (inactive).

Regarding `N#Cc1cccc(C(=O)Sc2cccc3cccnc23)c1`, the IC50 is > 99 µM (inactive).

Regarding `O=C(Sc1cccc2cccnc12)c1ccccc1`, the IC50 is > 99 µM (inactive).

Take `O=C(Sc1cccc2cccnc12)c1ccc2c(c1)OCO2`: the IC50 was > 99 µM (inactive).

`O=C(Sc1cccc2cccnc12)c1ccccc1Br`: the IC50 was > 99 µM (inactive).

As for `O=C(Sc1cccc2cccnc12)C1CCCCC1`, the IC50 was > 99 µM (inactive).

Consider `Cc1cccc(C(=O)Sc2cccc3cccnc23)c1`, for which the IC50 is > 99 µM (inactive).

For the compound `O=C(Sc1cccc2cccnc12)c1ccc(F)c(F)c1`, the IC50 is > 99 µM (inactive).

Take `O=C(Sc1cccc2cccnc12)c1ccccc1OC(F)(F)F`: the IC50 is > 99 µM (inactive).

For `COC(=O)[C@H](C)N(C)C(=O)c1cnc2c(SSc3cccc4cc(C(=O)N(C)[C@@H](C)C(=O)OC)cnc34)cccc2c1`, the IC50 was > 99 µM (inactive).

On to `COC(=O)[C@H](C)NC(=O)c1cnc2c(SSc3cccc4cc(C(=O)N[C@@H](C)C(=O)OC)cnc34)cccc2c1`, for which the IC50 is > 99 µM (inactive).

Consider `COC(=O)[C@@H](NC(=O)c1cnc2c(SSc3cccc4cc(C(=O)N[C@H](C(=O)OC)C(C)C)cnc34)cccc2c1)C(C)C`, for which the IC50 was > 99 µM (inactive).

Regarding `COc1ccc(C(=O)Sc2cccc3cccnc23)cc1OC`, the IC50 was > 99 µM (inactive).

With `COc1ccc(C(=O)Sc2cccc3cccnc23)cc1`, the IC50 is > 99 µM (inactive).

Take `COc1cccc(C(=O)Sc2cccc3cccnc23)c1`: the IC50 was > 99 µM (inactive).

On to `Cc1ccc(C(=O)Sc2cccc3cccnc23)cc1`, for which the IC50 was > 99 µM (inactive).

`N#Cc1ccc(C(=O)Sc2cccc3cccnc23)cc1`: the IC50 is > 99 µM (inactive).

With `COC(=O)[C@H](C)NC(=O)c1ccnc2c(SSc3cccc4c(C(=O)N[C@@H](C)C(=O)OC)ccnc34)cccc12`, the IC50 was > 99 µM (inactive).

On to `CC[C@@H](C)[C@H](NC(=O)c1cnc2c(SSc3cccc4cc(C(=O)N[C@H](C(=O)OC)[C@@H](C)CC)cnc34)cccc2c1)C(=O)OC`, for which the IC50 is > 99 µM (inactive).

Regarding `CC[C@@H](C)[C@H](NC(=O)c1cnc2c(SSc3cccc4cc(C(=O)N[C@H](C(=O)O)[C@H](C)CC)cnc34)cccc2c1)C(=O)O`, the IC50 was > 99 µM (inactive).

With `O=C(Sc1cccc2cccnc12)c1cccc(C(F)(F)F)c1`, the IC50 was > 99 µM (inactive).

Take `O=C(Sc1cccc2cccnc12)c1cccc(Cl)c1`: the IC50 was > 99 µM (inactive).

On to `O=C(Sc1cccc2cccnc12)c1ccccc1Cl`, for which the IC50 is > 99 µM (inactive).

Turning to `CC(C)C[C@H](NC(=O)c1cnc2c(SSc3cccc4cc(C(=O)N[C@@H](CC(C)C)C(=O)O)cnc34)cccc2c1)C(=O)O`, the IC50 is > 99 µM (inactive).

For `CC(C)(C)OC(=O)CCNC(=O)c1cnc2c(SSc3cccc4cc(C(=O)NCCC(=O)OC(C)(C)C)cnc34)cccc2c1`, the IC50 was > 99 µM (inactive).

On to `O=C(Sc1cccc2cccnc12)c1c(Cl)cccc1Cl`, for which the IC50 was > 99 µM (inactive).

For `COc1ccccc1C(=O)Sc1cccc2cccnc12`, the IC50 is > 99 µM (inactive).

As to `O=C(O)[C@@H]1CCCN1C(=O)c1cnc2c(SSc3cccc4cc(C(=O)N5CCC[C@H]5C(=O)O)cnc34)cccc2c1`, the IC50 was > 99 µM (inactive).

For the compound `O=C(Sc1cccc2cccnc12)c1ccccc1I`, the IC50 is > 99 µM (inactive).

Turning to `COC(=O)[C@@H]1CCCN1C(=O)c1cnc2c(SSc3cccc4cc(C(=O)N5CCC[C@H]5C(=O)OC)cnc34)cccc2c1`, the IC50 was > 99 µM (inactive).

On to `O=C(Sc1cccc2cccnc12)c1ccc(C(F)(F)F)cc1`, for which the IC50 is > 99 µM (inactive).

Regarding `O=C(Sc1cccc2cccnc12)c1ccc(F)cc1F`, the IC50 is > 99 µM (inactive).

Take `COC(=O)c1cnc2c(SSc3cccc4cc(C(=O)OC)cnc34)cccc2c1`: the IC50 is > 99 µM (inactive).

Take `COC(=O)[C@H](CC(C)C)NC(=O)c1cnc2c(SSc3cccc4cc(C(=O)N[C@@H](CC(C)C)C(=O)OC)cnc34)cccc2c1`: the IC50 was > 99 µM (inactive).

Turning to `O=C(Sc1cccc2cccnc12)c1ccc(F)cc1`, the IC50 is > 99 µM (inactive).

As to `Cc1ccccc1C(=O)Sc1cccc2cccnc12`, the IC50 is > 99 µM (inactive).

In the case of `CCOc1ccccc1C(=O)Sc1cccc2cccnc12`, the IC50 was > 99 µM (inactive).

Consider `COC(=O)C[C@H](NC(=O)c1cnc2c(SSc3cccc4cc(C(=O)N[C@@H](CC(=O)OC)C(=O)OC)cnc34)cccc2c1)C(=O)OC`, for which the IC50 was > 99 µM (inactive).

Turning to `CCCc1ccc(C(=O)Sc2cccc3cccnc23)cc1`, the IC50 is > 99 µM (inactive).

As to `O=C(Sc1cccc2cccnc12)c1cccc2ccccc12`, the IC50 was > 99 µM (inactive).

Consider `O=C(O)c1cnc2c(SSc3cccc4cc(C(=O)O)cnc34)cccc2c1`, for which the IC50 is > 99 µM (inactive).

Source of the values: PubChem BioAssay AID686918 (Sanford-Burnham Center for Chemical Genomics, 2013).
